The values that follow come from ChEMBL document CHEMBL1144929, “Determination of conformer-specific partition coefficients in octanol/water systems” (J Med Chem, 2003).

What all share (format): physicochemical
Series [1] is described as follows: Partition coefficient (logP). The following applies: octanol/water.
The nature of series [2]: Partition coefficient of h-rotamer in octanol water system.
Series [3] can be described thus: Partition coefficient of t-rotamer in octanol water system.
Series [4] is described as follows: Partition coefficient of g-rotamer in octanol water system.

With `CC(C)(C)NCC(O)c1cc(Cl)c(N)c(Cl)c1` (centres undefined) [CLENBUTEROL], the logP was 2.71 in series [1], 2.57 in series [2], 2.87 in series [3] and 2.14 in series [4].

A word on the logP: it is a log measure of how a compound divides between an organic and an aqueous phase.
